# Data taken from publication PMC12562379, “Facile Synthesis of N-vinylindoles via Knoevenagel Condensation: Molecular Features and Biological Activities” (International Journal of Molecular Sciences, 2025).
# Read-outs that look alike come from different tables or passages of the source.
# Key:
# C. albicans ATCC 10231 = test: Microbroth dilution assay; type: cell-based, Candida albicans; settings: Candida albicans, ATCC10231, C. albicans ATCC 10231; for MFC: read-out: MFC; for MIC: read-out: MIC
# Protocol: (§1) The minimum inhibitory concentration (MIC) and minimum bactericidal/fungicidal concentration (MBC/MFC) of the tested compounds were determined by the microbroth dilution technique using 96-well plates based on the methodology described in the EUCAST (European Committee on Antimicrobial Susceptibility Testing) standards. Reference and clinical strains of Gram-positive (Staphylococcus aureus ATCC 6538, Staphylococuccus aureus MRSA 6347) and Gram-negative (Escherichia coli ATCC 8739) bacteria, and yeast (Candida albicans ATCC 10231, Candida glabrata ATCC 2001) were used for the assay. The studies were carried out in the Mueller–Hinton (MH) broth for bacteria and RPMI 1640 broth + MOPS (Sigma-Aldrich, Poland) buffer in the case of yeast. The dry test samples were dissolved in DMSO (dimethyl sulfoxide), resulting in a final concentration of 15 mg/mL, and then diluted in a geometric progression. Ampicillin (Sigma-Aldrich, Poland) acted as a control sample (512 to 4 µg/mL) for bacteria and ketoconazole (128 to 1 µg/mL) (Sigma-Aldrich, Poland) acted as a control sample for yeast. The cultures of microorganisms were prepared by transferring cells from the stock cultures to tubes with the appropriate broth and incubated with agitation in an aerobic atmosphere for 18 ± 2 h at 35 ± 1 °C; next, they were diluted to achieve an optical density corresponding to 5 × 105 (bacteria) or 2 × 105 (yeast) colony-forming units per mL (cfu/mL). An appropriate media (96 µL), along with the tested compounds with a final concentration range of 300–3.1 µg/mL (4 µL) and next microbial suspension (100 µL) were added to each well. Plates with samples were incubated in adequate conditions described above and microbial growth was assessed. […] (>90%; ketoconazole) but 50% (for other compounds) inhibits visible growth of yeasts. Next, as a control of microbial viability, 100 µL of the samples from each well without growth was inoculated on the MH or RPMI agar plates and incubated for 18 ± 2 h at 35 ± 1 °C and finally, the CFU was counted. The MBC/MFC was determined as the minimum concentration of compounds required to kill 99.9% the organisms.
# C. glabrata ATCC 2001 = test: Microbroth dilution assay; type: cell-based, Candida glabrata; settings: Nakaseomyces glabratus, ATCC2001
# Protocol: as §1
# AGS = test: MTT assay, cytotoxic activity; type: cell-based, human; settings: 24 h, n = 12; for IC50: Homo sapiens
# Protocol: (§2) The human ovarian SKOV-3, gastric adenocarcinoma AGS, cervical HeLa cell lines and non-cancerous keratinocytes HaCaT were obtained from the American Type Culture Collection (ATCC, Manassas, VA, USA). The cell lines were cultured in McCoy’s Medium, Dulbecco’s Modified Eagle’s Medium/F12, and DMEM, respectively (Merck Millipore, Burlington, MA, USA). Penicillin (100 units/mL), streptomycin ([…]), and 10% (v/v) fetal bovine serum (FBS) were added to all the media. The cells were incubated at 37 °C and 5% CO2.
# (§3) To estimate the cytotoxic activity of the obtained compounds 2a-i, MTT assay was used. The cells (5 × 10^3 cells/well) were treated with the compounds in a range of concentrations 1–150 µg/mL. […] After 24 h, MTT solution (0.5 mg/mL) was added to the cells. Formazan crystals were dissolved in DMSO and the absorbance was measured with a microtiter plate reader (Epoch, BioTek Instruments, Winooski, VT, USA).
# SKOV-3 = test: MTT assay, cytotoxic activity; type: cell-based, human; settings: SKOV-3, MTT, 24 h, n = 12; for IC50: Homo sapiens, SK-OV-3
# Protocol: as §2, §3
# HeLa = test: MTT assay, cytotoxic activity; type: cell-based, human; settings: 24 h, n = 12; for IC50: Homo sapiens
# Protocol: as §2, §3
# [1] = test system: HeLa, SKOV-3, AGS (and HaCaT) cell lines; test: MTT assay, ranges stated over several cell lines; type: cell-based, human; settings: for IC50: Homo sapiens, range over the cancer cell lines HeLa, SKOV-3 and AGS
# Protocol: as §2, §3
# [2] = biological target: T1, AGE2-BSA/sRAGE interaction (Homo sapiens, UniProt Q15109); test: ELISA AGE2-BSA/sRAGE inhibitory screening; type: binding; settings: for Inhibition (%) of AGE2-BSA/sRAGE interaction: 100 µM
# T1 construct: purchased Creative BioMart
# Protocol: The in vitro inhibitor screening of AGE2 (glyceraldehyde-modified AGE)-sRAGE interaction (soluble RAGE) was performed using a 96-well AGE-BSA-coated plate (Creative BioMart® ELISA kit, Shirley, NY, USA), according to the manufacturer’s instructions. 100 UA/mL soluble RAGE (sRAGE) was incubated with 100 μM of the tested compounds or 0.05% DMSO as a negative control on an AGE2-BSA-coated plate at room temperature for 60 min, shaking at 300 rpm on an orbital microplate shaker. After incubation, the wells were washed 4 times with wash buffer and horseradish peroxidase (HRP)-labeled anti-RAGE antibody was added and the plate was further incubated at room temperature for 60 min, shaking at 300 rpm on an orbital microplate shaker. After incubation, the wells were washed 4 times with wash buffer and the Substrate Reagent was added to each well. After an incubation at room temperature for 5 min, the HRP-labeled antibody sRAGE-AGE complex was then detected by measuring the absorbance at 450 nm using the microplate reader Varioskan (Thermo Fischer Scientific). These experiments were repeated two times.
# [3] = test system: S. aureus ATCC 6535, S. aureus MRSA 12673 and other tested bacterial and yeast strains; test: Microbroth dilution assay, ranges stated over several strains; type: cell-based; settings: all tested microorganisms
# S. aureus MRSA 12673 = test: Microbroth dilution assay; type: cell-based; settings: Staphylococcus aureus
# S. aureus ATCC 6535 = test: Microbroth dilution assay; type: cell-based; settings: Staphylococcus aureus, ATCC6535
# HaCaT = test: MTT assay, cytotoxic activity on non-cancerous keratinocytes; type: cell-based; settings: Homo sapiens, 24 h, n = 12
# Protocol: as §2, §3
# E. coli ATCC 8739 = test: Microbroth dilution assay; type: cell-based; settings: Escherichia coli, ATCC8739
# Protocol: as §1
# [4] = S. aureus MRSA 12673, read-out: MIC
# [5] = E. coli ATCC 8739, read-out: MIC
# T1 sequence (Q15109 23-342 limits assumed): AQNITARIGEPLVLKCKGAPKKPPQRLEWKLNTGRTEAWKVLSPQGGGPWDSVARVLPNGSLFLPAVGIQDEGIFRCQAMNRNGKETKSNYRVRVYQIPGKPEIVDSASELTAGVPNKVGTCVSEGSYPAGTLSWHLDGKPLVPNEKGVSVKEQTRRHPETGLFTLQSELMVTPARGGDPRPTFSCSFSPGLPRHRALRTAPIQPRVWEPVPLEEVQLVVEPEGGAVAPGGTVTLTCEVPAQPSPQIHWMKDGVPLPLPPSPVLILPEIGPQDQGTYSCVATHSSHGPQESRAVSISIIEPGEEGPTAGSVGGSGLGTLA
Compound,MIC (C. albicans ATCC 10231),MIC (C. glabrata ATCC 2001),inhibition at 100 µM [2],Inhibition (%) of AGE2-BSA/sRAGE interaction [2],MIC (S. aureus MRSA 12673; [4]),MIC (S. aureus ATCC 6535),MIC (E. coli ATCC 8739; [5]),MFC (C. albicans ATCC 10231),MFC (C. glabrata ATCC 2001),IC50 (AGS),IC50 (SKOV-3),IC50 (HeLa),MBC (S. aureus MRSA 12673; S. aureus MRSA 12673),MBC (S. aureus ATCC 6535),IC50 (HaCaT),MBC (E. coli ATCC 8739; E. coli ATCC 8739),IC50 [1],further results
"CC(=O)N1CCN(c2ccc(OCC3COC(Cn4ccnc4)(c4ccc(Cl)cc4Cl)O3)cc2)CC1 (stereo not shown) [Ketoconazole, reference compound]",> 128 µg/mL,64 µg/mL,,,,,,> 128 µg/mL,128 µg/mL,,,,,,,,,
"O=C1[O][Pt]2([NH][C@@H]3CCCC[C@H]3[NH]2)[O]C1=O [Oxaliplatin, reference compound]",,,,,,,,,,,,,,,,,,IC50 ± SD (AGS): 17.90 ± 1.20 µg/mL; IC50 ± SD (SKOV-3): 102.16 ± 9.26 µg/mL; IC50 ± SD (HeLa): 35.76 ± 1.72 µg/mL; IC50 (range over cell lines) ([1]; range over HeLa and SKOV-3 cell lines): 35.76 to 102.16 µg/mL
"CC1(C)S[C@@H]2[C@H](NC(=O)[C@H](N)c3ccccc3)C(=O)N2[C@H]1C(=O)O [Ampicillin, reference compound]",,,,,,8 µg/mL,,,,,,,512 µg/mL,8 µg/mL,,128 µg/mL,,MIC (S. aureus MRSA 12673; MRSA): 512 µg/mL; MIC (E. coli ATCC 8739): 128 µg/mL

# More lines, main results first:
MIC (C. albicans ATCC 10231),MIC (C. glabrata ATCC 2001),inhibition at 100 µM [2],Inhibition (%) of AGE2-BSA/sRAGE interaction [2],MIC (S. aureus MRSA 12673; [4]),MIC (S. aureus ATCC 6535),MIC (E. coli ATCC 8739; [5]),Compound,MFC (C. albicans ATCC 10231),MFC (C. glabrata ATCC 2001),IC50 (AGS),IC50 (SKOV-3),IC50 (HeLa),MBC (S. aureus MRSA 12673; S. aureus MRSA 12673),MBC (S. aureus ATCC 6535),IC50 (HaCaT),MBC (E. coli ATCC 8739; E. coli ATCC 8739),IC50 [1],further results
> 240 µg/mL,240 µg/mL,36.4%,36.3%,120 µg/mL,120 µg/mL,> 240 µg/mL,"C(=C(\C1=NCCN1)n1ccc2ccccc21)/c1cccc2ccccc12 [Compound 2h, (Z)-1-[1-(4,5-dihydro-1H-imidazol-2-yl)-2-(naphthalen-1-yl)vinyl]-1H-indole]",> 240 µg/mL,240 µg/mL,18.9 ± 1.81 µg/mL,10.39 ± 0.1 µg/mL,10.1 ± 1.12 µg/mL,240 µg/mL,240 µg/mL,17.9 ± 1.93 µg/mL,> 240 µg/mL,10.1 to 18.9 µg/mL,MBC/MFC [3]: ≥ 240 µg/mL
> 240 µg/mL,> 240 µg/mL,12%,,120 µg/mL,120 µg/mL,240 µg/mL,"Fc1ccc(/C=C(/C2=NCCN2)n2ccc3ccccc32)cc1 [Compound 2d, (Z)-1-[1-(4,5-dihydro-1H-imidazol-2-yl)-2-(4-fluorophenyl)vinyl]-1H-indole]",> 240 µg/mL,> 240 µg/mL,15.5 ± 0.72 µg/mL,10.2 ± 0.45 µg/mL,8.65 ± 0.68 µg/mL,> 240 µg/mL,240 µg/mL,7.37 ± 0.28 µg/mL,> 240 µg/mL,8.65 to 15.5 µg/mL,
220 µg/mL,220 µg/mL,,devoid of activity and lack,220 µg/mL,55 µg/mL,220 µg/mL,"Cc1ccc(/C=C(/C2=NCCN2)n2ccc3ccccc32)cc1 [Compound 2b, (Z)-1-[1-(4,5-dihydro-1H-imidazol-2-yl)-2-(p-tolyl)vinyl]-1H-indole]",> 220 µg/mL,> 220 µg/mL,16.2 ± 1.2 µg/mL,9.69 ± 0.62 µg/mL,8.19 ± 0.4 µg/mL,> 220 µg/mL,110 µg/mL,12.1 ± 0.55 µg/mL,> 220 µg/mL,8.19 to 16.2 µg/mL,
